Source: patent publication US9439432B2, “Phenylisoxazoline-based compound having herbicidal activity and use thereof” (MOGHU RESEARCH CENTER LTD, priority 2011, dated 2016)

Columns and labels:
Format in all cases: in vivo
Poa annua [1] = test: Post-emergence treatment, herbicidal efficacy on annual bluegrass; details: 4 weeks after spraying, scale 0 to 10
Procedure, shortened: (§1)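 Seed weeds and crops into 1:1 sandy loam/mixed bed soil; grow about two weeks to roughly 3 leaves; track-spray 125–1,000 g/ha at 300 L/ha from acetone/0.2% Tween 20; hold in greenhouse (25–30 °C day, 15–25 °C night); rate efficacy and crop injury 0–10 after four weeks.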

Alopecurus myosuroides [2] = test: Post-emergence treatment, herbicidal efficacy on blackgrass; details: 4 weeks after spraying, scale 0 to 10
Procedure, shortened: as §1

[3] = system: grass weeds including barnyardrass, large crabgrass, and annual bluegrass; test: Pre-emergence treatment, grass weeds overall; details: relative to reference compounds
Description: (§2) A rectangular plastic pot having a surface area of 300 cm^2 was filled with sandy loam soil and mixed bed soil which were mixed at a ratio of 1:1, and then, barnyardrass (Echinochloa crusgalli), large crabgrass (Digitaria sanguinalis), blackgrass (Alopecurus myosuroides), and annual bluegrass (Poa annua), which are grass weeds, were seeded thereto. In a pot that was prepared as described above, seeds of corn, soybean, cotton, wheat, and rice were seeded. The pots were irrigated, and one day after, chemicals were sprayed thereto. The spraying was performed by using a track sprayer (R&D Sprayer, USA) equipped with a Teejet 8002 (Spraying Systems Co., USA) nozzle, and a spraying amount was adjusted at 300 L/ha. A spraying solution was prepared by dissolving test materials or references in acetone and adding the same amount of 0.2%(v/v) tween 20 aqueous solution thereto. Application rates were 500, 250, 125, and 62.5 g/ha. The pots were placed in a greenhouse in which during day, the temperature was maintained at a temperature of 25 to 30° C., and during night, the temperature was maintained at a temperature of 15 to 25° C., and the pots were periodically irrigated. Four weeks after the spraying the test materials or References, effects and phytotoxicity of the respective weeds and crops were evaluated in a scale of 0 to 10 (0: no effects, 10: complete death), and results thereof are shown in Table 4 below.

Rice [4] = test: Pre-emergence treatment, phytotoxicity to rice; details: 500 g/ha, 4 weeks after spraying, scale 0 to 10 (0: no effects, 10: complete death)
Procedure, shortened: (§3)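 Test materials are dissolved in acetone and mixed with an equal amount of 0.2% (v/v) Tween 20 solution. This solution is sprayed pre-emergence at 500, 250, 125 or 62.5 g/ha onto freshly seeded, irrigated soil one day after watering. Effects are rated 0–10 four weeks later.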

Corn [5] = test: Post-emergence treatment, phytotoxicity to corn; details: post-emergence (about 3 leaf stage), 1,000 g/ha, 4 weeks after spraying, scale 0 to 10 (0: no effects, 10: complete death)
Procedure, shortened: as §1

Poa annua [6] = test: Pre-emergence treatment, herbicidal efficacy on annual bluegrass; details: 4 weeks after spraying, scale 0 to 10
Procedure, shortened: as §3

Digitaria sanguinalis [7] = test: Pre-emergence treatment, herbicidal efficacy on large crabgrass; details: 4 weeks after spraying, scale 0 to 10
Procedure, shortened: as §3

Wheat [8] = test: Post-emergence treatment, phytotoxicity to wheat; details: post-emergence (about 3 leaf stage), 1,000 g/ha, 4 weeks after spraying, scale 0 to 10 (0: no effects, 10: complete death)
Procedure, shortened: as §1

Soybean [9] = test: Pre-emergence treatment, phytotoxicity to soybean; details: 500 g/ha, 4 weeks after spraying, scale 0 to 10 (0: no effects, 10: complete death)
Procedure, shortened: as §3

Corn [10] = test: Pre-emergence treatment, phytotoxicity to corn; details: 500 g/ha, 4 weeks after spraying, scale 0 to 10 (0: no effects, 10: complete death)
Procedure, shortened: as §3

Digitaria sanguinalis [11] = test: Post-emergence treatment, herbicidal efficacy on large crabgrass; details: 4 weeks after spraying, scale 0 to 10
Procedure, shortened: as §1

Wheat [12] = test: Pre-emergence treatment, phytotoxicity to wheat; details: 500 g/ha, 4 weeks after spraying, scale 0 to 10 (0: no effects, 10: complete death)
Procedure, shortened: as §3

Alopecurus myosuroides [13] = test: Pre-emergence treatment, herbicidal efficacy on blackgrass; details: 4 weeks after spraying, scale 0 to 10
Procedure, shortened: as §3

Cotton [14] = test: Post-emergence treatment, phytotoxicity to cotton; details: post-emergence (about 3 leaf stage), 1,000 g/ha, 4 weeks after spraying, scale 0 to 10 (0: no effects, 10: complete death)
Procedure, shortened: as §1

Rice [15] = test: Post-emergence treatment, phytotoxicity to rice; details: post-emergence (about 3 leaf stage), 1,000 g/ha, 4 weeks after spraying, scale 0 to 10 (0: no effects, 10: complete death)
Procedure, shortened: as §1

Soybean [16] = test: Post-emergence treatment, phytotoxicity to soybean; details: post-emergence (about 3 leaf stage), 1,000 g/ha, 4 weeks after spraying, scale 0 to 10 (0: no effects, 10: complete death)
Procedure, shortened: as §1

[17] = system: barnyardgrass, large crabgrass, and annual bluegrass; test: Post-emergence treatment, grass weeds overall; details: 250 g/ha
Description: as §2
Pots containing crops and weeds were prepared in the same manner as in Example 7, and then, in the second week in which crops and weeds entered into about 3 leaf stage, the test materials and the references were sprayed thereto in the same manner as described above. The rates were 1,000, 500, 250, and 125 g/ha. Four weeks after the spraying of the test materials or the references, herbicidal efficacy and phytotoxicity to the respective weeds and crops were evaluated in a scale of 0 to 10 (0: no effects, 10: complete death).

Echinochloa crusgalli [18] = test: Post-emergence treatment, herbicidal efficacy on barnyardgrass; details: 4 weeks after spraying, scale 0 to 10
Procedure, shortened: as §1

Cotton [19] = test: Pre-emergence treatment, phytotoxicity to cotton; details: 500 g/ha, 4 weeks after spraying, scale 0 to 10 (0: no effects, 10: complete death)
Procedure, shortened: as §3

Echinochloa crusgalli [20] = test: Pre-emergence treatment, herbicidal efficacy on barnyardgrass; details: 4 weeks after spraying
Procedure, shortened: as §3

In the case of `Cc1ccccc1C1=NOC(C)(COCc2c(F)cccc2F)C1` (centres unmarked) [Compound 1, 5-((2,6-difluorobenzyloxy)methyl)-5-methyl-3-o-tolyl-4,5-dihydroisoxazole], the “Herbicidal efficacy, Poa annua” value (Poa annua [1]; post-emergence, 125 g/ha) is reported as 5, the “Herbicidal efficacy, Poa annua” value (Poa annua [1]; post-emergence, 250 g/ha) is reported as 8 and the “Herbicidal efficacy, Poa annua” value (Poa annua [1]; post-emergence, 500 g/ha) is reported as 9. For the same compound, the “Herbicidal efficacy, Poa annua” value (Poa annua [1]; post-emergence, 1,000 g/ha) was 10, the “Herbicidal efficacy, Alopecurus myosuroides” value (Alopecurus myosuroides [2]; post-emergence, 125 g/ha) was 2 and the “Herbicidal efficacy, Alopecurus myosuroides” value (Alopecurus myosuroides [2]; post-emergence, 250 g/ha) was 8. For the same compound, the “Herbicidal efficacy, Alopecurus myosuroides” value (Alopecurus myosuroides [2]; post-emergence, 500 g/ha) was 7, the “Herbicidal efficacy, Alopecurus myosuroides” value (Alopecurus myosuroides [2]; post-emergence, 1,000 g/ha) was 9 and the “efficacy stronger than the References” value [3] was “about 8 times”. The “Phytotoxicity, Rice” value (Rice [4]) was 0, the “Phytotoxicity, Corn” value (Corn [5]) was 2 and the “Herbicidal efficacy, Poa annua” value (Poa annua [6]; 62.5 g/ha) was 9. For the same compound, the “Herbicidal efficacy, Poa annua” value (Poa annua [6]; 125 g/ha) was 10, the “Herbicidal efficacy, Poa annua” value (Poa annua [6]; 250 g/ha) was 10 and the “Herbicidal efficacy, Poa annua” value (Poa annua [6]; 500 g/ha) was 10. The “Herbicidal efficacy, Digitaria sanguinalis” value (Digitaria sanguinalis [7]; 62.5 g/ha) was 9, the “Herbicidal efficacy, Digitaria sanguinalis” value (Digitaria sanguinalis [7]; 125 g/ha) was 10 and the “Herbicidal efficacy, Digitaria sanguinalis” value (Digitaria sanguinalis [7]; 250 g/ha) was 10. For the same compound, the “Herbicidal efficacy, Digitaria sanguinalis” value (Digitaria sanguinalis [7]; 500 g/ha) was 10, the “Phytotoxicity, Wheat” value (Wheat [8]) was 0 and the “Phytotoxicity, Soybean” value (Soybean [9]) was 0. The “Phytotoxicity, Corn” value (Corn [10]) was 1, the “Herbicidal efficacy, Digitaria sanguinalis” value (Digitaria sanguinalis [11]; post-emergence, 125 g/ha) was 6 and the “Herbicidal efficacy, Digitaria sanguinalis” value (Digitaria sanguinalis [11]; post-emergence, 250 g/ha) was 9. The “Herbicidal efficacy, Digitaria sanguinalis” value (Digitaria sanguinalis [11]; post-emergence, 500 g/ha) was 10, the “Herbicidal efficacy, Digitaria sanguinalis” value (Digitaria sanguinalis [11]; post-emergence, 1,000 g/ha) was 10 and the “Phytotoxicity, Wheat” value (Wheat [12]) was 0. For the same compound, the “Herbicidal efficacy, Alopecurus myosuroides” value (Alopecurus myosuroides [13]; 62.5 g/ha) was 4, the “Herbicidal efficacy, Alopecurus myosuroides” value (Alopecurus myosuroides [13]; 125 g/ha) was 6 and the “Herbicidal efficacy, Alopecurus myosuroides” value (Alopecurus myosuroides [13]; 250 g/ha) was 8. The “Herbicidal efficacy, Alopecurus myosuroides” value (Alopecurus myosuroides [13]; 500 g/ha) was 9, the “Phytotoxicity, Cotton” value (Cotton [14]) was 2 and the “Phytotoxicity, Rice” value (Rice [15]) was 0. The “Phytotoxicity, Soybean” value (Soybean [16]) was 2, the “suppression of barnyardgrass, large crabgrass, and annual bluegrass” value [17] was “greatly suppressed” and the “Herbicidal efficacy, Echinochloa crusgalli” value (Echinochloa crusgalli [18]; post-emergence, 125 g/ha) was 7. The “Herbicidal efficacy, Echinochloa crusgalli” value (Echinochloa crusgalli [18]; post-emergence, 250 g/ha) was 9, the “Herbicidal efficacy, Echinochloa crusgalli” value (Echinochloa crusgalli [18]; post-emergence, 500 g/ha) was 10 and the “Herbicidal efficacy, Echinochloa crusgalli” value (Echinochloa crusgalli [18]; post-emergence, 1,000 g/ha) was 10. The “Phytotoxicity, Cotton” value (Cotton [19]) was 0, the “Herbicidal efficacy, Echinochloa crusgalli” value (Echinochloa crusgalli [20]; 62.5 g/ha, scale 0 to 10) was 10 and the “Herbicidal efficacy, Echinochloa crusgalli” value (Echinochloa crusgalli [20]; 125 g/ha, scale 0 to 10) was 10. For the same compound, the “Herbicidal efficacy, Echinochloa crusgalli” value (Echinochloa crusgalli [20]; 250 g/ha, scale 0 to 10) was 10 and the “Herbicidal efficacy, Echinochloa crusgalli” value (Echinochloa crusgalli [20]; 500 g/ha, scale 0 to 10 (0: no effects, 10: complete death)) was 10.
